# Experimental data as given in patent publication US20020170078A1, “Calcineurin-related transgenic mammals, compositions and methods” (priority 2001, published 2002).
# Test system: Schaffer collateral pathway to area CA1 of hippocampal slices
# Experiment: 1-train (100 Hz) LTP, field potential recordings in hippocampal slices
# Assay type: cell-based, mouse
smiles,measurement,setting,value
NC(CCCP(=O)(O)O)C(=O)O (racemic) [DL-AP5],effect on the enhanced LTP,"100 uM, at least 20 min pretreatment, mutant slices",abolished
CCCCCCOC(=O)[C@]1(O)C[C@@H]2O[C@@]1(C)n1c3ccccc3c3c4c(c5c6ccccc6n2c5c31)C(=O)NC4 [KT5720],"1-train LTP, % baseline 30 min after tetanus",,134±6 % baseline
same,effect on 1-train LTP,"control slices, 30 min pretreatment",no effect
same,effect on the increased potentiation (enhanced 1-train LTP),mutant slices,suppressed
